{
  "source": "patent US20060094744A1",
  "about": "“Pharmaceutical dosage forms of stable amorphous rapamycin like compounds” (priority 2004, published 2006)",
  "test": "Differential scanning calorimetry of amorphous sirolimus (glass transition temperature)",
  "format": "physicochemical",
  "details": "DSC, TA-Instruments Q1000 MTDSC, approximately 3 mg, heating rate 2° C./min; higher Tg is said to mean a more stable amorphous material",
  "protocol": "In another test, the amorphous sirolimus is analyzed utilizing differential scanning calorimetry. Essentially, the purpose of this test is to determine the glass transition temperature of the amorphous sirolimus. In this test, approximately 3 mg of amorphous sirolimus is transferred into a standard aluminum TA-Instrument sample pan and covered. The DSC curve is recorded on a TA-Instruments Q1000 MTDSC equipped with a RCS cooling unit. FIG. 2 illustrates a differential scanning calorimetry curve of amorphous sirolimus.",
  "data": [
    {"smiles": "CO[C@H]1C[C@@H]2CC[C@@H](C)[C@@](O)(O2)C(=O)C(=O)N2CCCC[C@H]2C(=O)O[C@H]([C@H](C)C[C@@H]2CC[C@@H](O)[C@H](OC)C2)CC(=O)[C@H](C)/C=C(\\C)[C@@H](O)[C@@H](OC)C(=O)[C@H](C)C[C@H](C)/C=C/C=C/C=C/1C", "note": "[amorphous sirolimus, (3S,6R,7E,9R,10R,12R,14S,15E,17E,19E,21 S,23S, 26R,27R,34aS)-9, 10, 12, 13, 14,21,22,23,24,25,26,27,32,33,34, 34a-hexadecahydro-9,27-dihydroxy-3-[(1R)-2-[(1S,3R,4R)-4-hydroxy-3-methoxycyclohexyl]-1-methylethyl]-10,21-dimethoxy-6,8,12,14,20,26-hexamethyl-23,27-epoxy-3H-pyrido[2,1-c][1,4] oxaazacyclohentriacontine-1,5,11,28,29(4H,6H,31H)-pentone]", "values": [
      {"measurement": "glass transition temperature", "result": "about 93 °C"}
    ]}
  ]
}
